Activity calls are given as the source filed them. The rule behind the calls is not given here.

We go through 12 molecules from ChEMBL document CHEMBL3045310, “Synthesis of new benzotriazepin-5(2H)-one derivatives of expected antipsychotic activity” (Med Chem Res, 2013).

The test system of series [1] is Mus musculus. In words: Neurotoxicity against Mus musculus albino (mouse) assessed as fall from horizontal screen at 3 mg/kg, ip after 30 min by horizontal screen test relative to control. It counts as toxicity, organism-based. Details: dose 3 mg/kg, route intraperitoneal. The following applies: in vivo, 0.5 h.
Series [2] concerns Mus musculus. In words: CNS depressant activity in Mus musculus albino (mouse) assessed as immobility time at 3 mg/kg, ip measured after 24 hr by forced swim test (reference value: 120 +/- 5.1 secs). It counts as functional. As to conditions: route intraperitoneal.
Series [3] concerns Mus musculus. In words: Anticonvulsant activity in Mus musculus albino (mouse) assessed as inhibition of PTZ-induced seizure at 3 mg/kg, ip administered 1 hr prior to PTZ-challenge measured after 2 to 4 min relative to control. The format is functional, organism-based. Details: dose 3 mg/kg.
In series [4] the test system is Mus musculus. In words: Antipsychotic activity in Mus musculus albino (mouse) assessed as ptosis at 3 mg/kg, ip relative to control. The following applies: route intraperitoneal. The format is functional.
For series [5], the system named is Mus musculus. In words: Neurotoxicity against Mus musculus albino (mouse) at 3 mg/kg, ip after 30 min by rotarod test. The format is toxicity, organism-based. As to conditions: in vivo, 0.5 h. Details: dose 3 mg/kg, route intraperitoneal.
Series [6] deals with Mus musculus. In words: Neurotoxicity against Mus musculus albino (mouse) assessed as inability to climb horizontal screen at 3 mg/kg, ip after 30 min by horizontal screen test relative to control. The format is toxicity, organism-based. Details: dose 3 mg/kg, route intraperitoneal. As to conditions: in vivo, 0.5 h.

Take `CN1CN(c2ccccc2)NC(=O)c2ccccc21`: the Activity in series [1] is given as 50%; in series [4], 100%; in series [5], “Toxic”; in series [6], 0%. For the same molecule, in series [2], the Time came to 178 s. Further, the inhibition entry in series [3] was “inactive”.

For `CN1c2ccccc2C(=O)NN(c2ccccc2)C1c1ccc([N+](=O)[O-])cc1` (configuration not stated), the Activity is 0% in series [1], 50% in series [4], “Non-toxic” in series [5] and 0% in series [6]. Further, in series [2], the Time is reported as 125 s. For the same molecule, the inhibition entry in series [3] is “inactive”.

With `CN1CCN(C2=Nc3cc(Cl)ccc3Nc3ccccc32)CC1` [CLOZAPINE], the Activity was 50% in series [1], 100% in series [4], “Toxic” in series [5] and 16.7% in series [6]. For the same molecule, the Time in series [2] is reported as 194 s. Moreover, in series [3], the inhibition entry is “inactive”.

On to `CN1C(=S)N(c2ccccc2)NC(=O)c2ccccc21`, for which the Activity is recorded as 0% in series [1], 100% in series [4], “Non-toxic” in series [5] and 0% in series [6]. In addition, the Time in series [2] was determined as 129 s. Moreover, the inhibition entry in series [3] was “inactive”.

On to `CN1c2ccccc2C(=O)NN(c2ccccc2)C1c1ccccc1[N+](=O)[O-]` (configuration not stated), for which the Activity is 16.7% in series [1], 0% in series [4], “Toxic” in series [5] and 16.7% in series [6]. The Time in series [2] amounted to 141 s. Moreover, the inhibition result in series [3] was “inactive”.

For the molecule `CN1c2ccccc2C(=O)NN(c2ccccc2)C1c1ccc(Cl)cc1` (configuration not stated), the Activity in series [1] was 33.3%; in series [4], 50%; in series [5], “Toxic”; in series [6], 33.3%. Besides, the Time in series [2] was 156 s. In series [3], the inhibition result was “inactive”.

On to `CN1c2ccccc2C(=O)NN(c2ccccc2)C1c1ccc(O)cc1` (configuration not stated), for which the Activity was 16.7% in series [1], 75% in series [4], “Toxic” in series [5] and 0% in series [6]. In series [2], the Time came out at 151 s. In addition, in series [3], the inhibition entry was “inactive”.

In the case of `CN1CN(C(=O)c2ccncc2)NC(=O)c2ccccc21`, the Activity in series [1] is given as 33.3%; in series [4], 100%; in series [5] it was “Toxic”; in series [6] it was 16.7%. For the same molecule, the Time in series [2] is 190 s. Moreover, the inhibition entry in series [3] is “inactive”.

As to `COc1ccc(C2N(C)c3ccccc3C(=O)NN2c2ccccc2)cc1` (configuration not stated), the Activity in series [1] was 16.7%; in series [4] it was 75%; in series [5] it was “Toxic”; in series [6], 0%. The Time in series [2] is reported as 141 s. The inhibition result in series [3] is “inactive”.

Take `CN1c2ccccc2C(=O)NN(c2ccccc2)C1c1ccc(Br)cc1` (configuration not stated): the Activity in series [1] is given as 16.7%; in series [4], 0%; in series [5], “Toxic”; in series [6], 16.7%. Also, the Time in series [2] is 140 s. In addition, the inhibition result in series [3] is “inactive”.

Turning to `COc1cc(C2N(C)c3ccccc3C(=O)NN2c2ccccc2)cc(OC)c1OC` (configuration not stated), the Activity is reported as 0% in series [1], 50% in series [4], “Non-toxic” in series [5] and 0% in series [6]. For the same molecule, the Time in series [2] is reported as 135 s. In addition, the inhibition entry in series [3] is “inactive”.

Turning to `CN1c2ccccc2C(=O)NN(c2ccccc2)C1c1ccccc1` (configuration not stated), the Activity in series [1] is recorded as 0%; in series [4] it was 0%; in series [5], “Non-toxic”; in series [6] it was 0%. Also, the Time in series [2] was 118 s. In series [3], the inhibition result was “inactive”.
